# Biological target: human PAD4 (hPAD4) (Homo sapiens, UniProt Q9UM07)
# Experiment: RFMS Human PAD4 Functional Assay
# Assay type: biochemical
# Conditions: hPAD4 RFMS IC50, human PAD4, rapid-fire mass spectrum (RFMS) assay; 5 nM hPAD4, 250 μM BAEE
# How it was run: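 RapidFire ESI-MS quantification, normalised to a modified-citrulline internal standard, after phenyl glyoxal (final 4 mM) derivatisation of the TCA-quenched reaction. The enzyme (10 nM) sat 30 min with compound (up to 50 μM final) before 500 μM BAEE (as added) started a 90 min, 37 °C reaction. Buffer: HEPES pH 7.5, 50 μM calcium, 5 μM TPEN.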
# Chain of human PAD4 (hPAD4) (Q9UM07 whole entry): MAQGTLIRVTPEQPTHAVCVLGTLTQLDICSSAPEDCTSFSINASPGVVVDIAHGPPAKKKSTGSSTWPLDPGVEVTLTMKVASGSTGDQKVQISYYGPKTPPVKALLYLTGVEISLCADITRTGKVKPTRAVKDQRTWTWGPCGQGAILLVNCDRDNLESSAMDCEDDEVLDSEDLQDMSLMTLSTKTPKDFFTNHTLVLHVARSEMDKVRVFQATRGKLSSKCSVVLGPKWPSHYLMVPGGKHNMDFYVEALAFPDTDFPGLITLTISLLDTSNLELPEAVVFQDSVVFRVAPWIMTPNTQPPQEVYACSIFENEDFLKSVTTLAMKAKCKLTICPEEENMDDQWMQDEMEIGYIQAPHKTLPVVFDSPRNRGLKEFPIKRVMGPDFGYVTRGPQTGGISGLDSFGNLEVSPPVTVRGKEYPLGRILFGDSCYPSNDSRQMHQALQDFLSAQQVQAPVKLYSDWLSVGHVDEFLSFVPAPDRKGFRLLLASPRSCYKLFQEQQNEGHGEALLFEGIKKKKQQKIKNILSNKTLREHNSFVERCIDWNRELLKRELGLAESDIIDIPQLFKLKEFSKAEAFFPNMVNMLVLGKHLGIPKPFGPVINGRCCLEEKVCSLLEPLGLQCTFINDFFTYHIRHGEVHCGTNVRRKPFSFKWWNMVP
row,Structure (SMILES),IC50
1,"CCOCC(=O)N1CCC(c2cccc3cc(-c4nc5cc(C(=O)N6C[C@H]7CC[C@@H]6[C@@H]7N)cc(OC)c5n4C)n(CC4CC4)c23)CC1 [Example 234, 1-(4-(2-(5-((1R,4R,7R)-7-amino-2-azabicyclo[2.2.1]heptane-2-carbonyl)-7-methoxy-1-methyl-1H-benzo[d]imidazol-2-yl)-1-(cyclopropylmethyl)-1H-indol-7-yl)piperidin-1-yl)-2-ethoxyethan-1-one]",49 nM
2,"COc1cc(C(=O)N2C[C@H]3CC[C@@H]2[C@@H]3N)cc2nc(-c3cc4cccc(C5CCN(C(=O)COc6ccccc6)CC5)c4n3CC3CC3)n(C)c12 [Example 235, 1-(4-(2-(5-((1R,4R,7R)-7-amino-2-azabicyclo[2.2.1]heptane-2-carbonyl)-7-methoxy-1-methyl-1H-benzo[d]imidazol-2-yl)-1-(cyclopropylmethyl)-1H-indol-7-yl)piperidin-1-yl)-2-phenoxyethan-1-one]",58 nM
3,"COCCC(=O)N1CCC(c2cccc3cc(-c4nc5cc(C(=O)N6C[C@H]7CC[C@@H]6[C@@H]7N)cc(OC)c5n4C)n(CC4CC4)c23)CC1 [Example 236, 1-(4-(2-(5-((1R,4R,7R)-7-amino-2-azabicyclo[2.2.1]heptane-2-carbonyl)-7-methoxy-1-methyl-1H-benzo[d]imidazol-2-yl)-1-(cyclopropylmethyl)-1H-indol-7-yl)piperidin-1-yl)-3-methoxypropan-1-one]",57 nM
4,"COCCCC(=O)N1CCC(c2cccc3cc(-c4nc5cc(C(=O)N6C[C@H]7CC[C@@H]6[C@@H]7N)cc(OC)c5n4C)n(CC4CC4)c23)CC1 [Example 237, 1-(4-(2-(5-((1R,4R,7R)-7-amino-2-azabicyclo[2.2.1]heptane-2-carbonyl)-7-methoxy-1-methyl-1H-benzo[d]imidazol-2-yl)-1-(cyclopropylmethyl)-1H-indol-7-yl)piperidin-1-yl)-4-methoxybutan-1-one]",18 nM
5,"COc1cc(C(=O)N2C[C@H]3CC[C@@H]2[C@@H]3N)cc2nc(-c3cc4cccc(C5CCN(C(=O)C(C)OC)CC5)c4n3CC3CC3)n(C)c12 (stereo partly drawn) [Example 238, 1-(4-(2-(5-((1R,4R,7R)-7-amino-2-azabicyclo[2.2.1]heptane-2-carbonyl)-7-methoxy-1-methyl-1H-benzo[d]imidazol-2-yl)-1-(cyclopropylmethyl)-1H-indol-7-yl)piperidin-1-yl)-2-methoxypropan-1-one]",104 nM
6,"COc1cc(C(=O)N2C[C@H]3CC[C@@H]2[C@@H]3N)cc2nc(-c3cc4cccc(C5CCN(C(=O)COC(C)C)CC5)c4n3CC3CC3)n(C)c12 [Example 239, 1-(4-(2-(5-((1R,4R,7R)-7-amino-2-azabicyclo[2.2.1]heptane-2-carbonyl)-7-methoxy-1-methyl-1H-benzo[d]imidazol-2-yl)-1-(cyclopropylmethyl)-1H-indol-7-yl)piperidin-1-yl)-2-isopropoxyethan-1-one]",119 nM
7,"COc1cc(C(=O)N2C[C@H]3CC[C@@H]2[C@@H]3N)cc2nc(-c3cc4cccc(C5CCN(C(=O)CO)CC5)c4n3CC3CC3)n(C)c12 [Example 240, 1-(4-(2-(5-((1R,4R,7R)-7-amino-2-azabicyclo[2.2.1]heptane-2-carbonyl)-7-methoxy-1-methyl-1H-benzo[d]imidazol-2-yl)-1-(cyclopropylmethyl)-1H-indol-7-yl)piperidin-1-yl)-2-hydroxyethan-1-one]",15 nM
8,"COc1cc(C(=O)N2C[C@H]3CC[C@@H]2[C@@H]3N)cc2nc(-c3cc4cccc(C5CCN(C(=O)Nc6ccc(F)cc6)CC5)c4n3CC3CC3)n(C)c12 [Example 241, 4-(2-(5-((1R,4R,7R)-7-amino-2-azabicyclo[2.2.1]heptane-2-carbonyl)-7-methoxy-1-methyl-1H-benzo[d]imidazol-2-yl)-1-(cyclopropylmethyl)-1H-indol-7-yl)-N-(4-fluorophenyl)piperidine-1-carboxamide]",28 nM
9,"COc1cc(C(=O)N2C[C@H]3CC[C@@H]2[C@@H]3N)cc2nc(-c3cc4cccc(C5CCN(C(=O)Nc6cccc(F)c6)CC5)c4n3CC3CC3)n(C)c12 [Example 242, 4-(2-(5-((1R,4R,7R)-7-amino-2-azabicyclo[2.2.1]heptane-2-carbonyl)-7-methoxy-1-methyl-1H-benzo[d]imidazol-2-yl)-1-(cyclopropylmethyl)-1H-indol-7-yl)-N-(3-fluorophenyl)piperidine-1-carboxamide]",30 nM
10,"COc1cc(C(=O)N2C[C@H]3CC[C@@H]2[C@@H]3N)cc2nc(-c3cc4cccc(C5CCN(C(=O)Nc6ccccc6F)CC5)c4n3CC3CC3)n(C)c12 [Example 243, 4-(2-(5-((1R,4R,7R)-7-amino-2-azabicyclo[2.2.1]heptane-2-carbonyl)-7-methoxy-1-methyl-1H-benzo[d]imidazol-2-yl)-1-(cyclopropylmethyl)-1H-indol-7-yl)-N-(2-fluorophenyl)piperidine-1-carboxamide]",8 nM
11,"COc1cc(C(=O)N2C[C@H]3CC[C@@H]2[C@@H]3N)cc2nc(-c3cc4cccc(C5CCN(C(=O)Nc6ccncc6)CC5)c4n3CC3CC3)n(C)c12 [Example 245, 4-(2-(5-((1R,4R,7R)-7-amino-2-azabicyclo[2.2.1]heptane-2-carbonyl)-7-methoxy-1-methyl-1H-benzo[d]imidazol-2-yl)-1-(cyclopropylmethyl)-1H-indol-7-yl)-N-(pyridin-4-yl)piperidine-1-carboxamide]",13 nM
12,"COc1ccc(NC(=O)N2CCC(c3cccc4cc(-c5nc6cc(C(=O)N7C[C@H]8CC[C@@H]7[C@@H]8N)cc(OC)c6n5C)n(CC5CC5)c34)CC2)cc1 [Example 246, 4-(2-(5-((1R,4R,7R)-7-amino-2-azabicyclo[2.2.1]heptane-2-carbonyl)-7-methoxy-1-methyl-1H-benzo[d]imidazol-2-yl)-1-(cyclopropylmethyl)-1H-indol-7-yl)-N-(4-methoxyphenyl)piperi-dine-1-carboxamide]",6 nM
13,"COc1ccccc1NC(=O)N1CCC(c2cccc3cc(-c4nc5cc(C(=O)N6C[C@H]7CC[C@@H]6[C@@H]7N)cc(OC)c5n4C)n(CC4CC4)c23)CC1 [Example 247, 4-(2-(5-((1R,4R,7R)-7-amino-2-azabicyclo[2.2.1]heptane-2-carbonyl)-7-methoxy-1-methyl-1H-benzo[d]imidazol-2-yl)-1-(cyclopropylmethyl)-1H-indol-7-yl)-N-(2-methoxyphenyl)piperi-dine-1-carboxamide]",9 nM
14,"COc1cccc(NC(=O)N2CCC(c3cccc4cc(-c5nc6cc(C(=O)N7C[C@H]8CC[C@@H]7[C@@H]8N)cc(OC)c6n5C)n(CC5CC5)c34)CC2)c1 [Example 248, 4-(2-(5-((1R,4R,7R)-7-amino-2-azabicyclo[2.2.1]heptane-2-carbonyl)-7-methoxy-1-methyl-1H-benzo[d]imidazol-2-yl)-1-(cyclopropylmethyl)-1H-indol-7-yl)-N-(3-methoxyphenyl)piperi-dine-1-carboxamide]",20 nM
15,"COc1cc(C(=O)N2C[C@H]3CC[C@@H]2[C@@H]3N)cc2nc(-c3cc4cccc(C5CCN(C(=O)NC6CC6)CC5)c4n3CC3CC3)n(C)c12 [Example 249, 4-(2-(5-((1R,4R,7R)-7-amino-2-azabicyclo[2.2.1]heptane-2-carbonyl)-7-methoxy-1-methyl-1H-benzo[d]imidazol-2-yl)-1-(cyclopropylmethyl)-1H-indol-7-yl)-N-cyclopropylpiperidine-1-carboxmaide]",8 nM

# Source: patent publication US20220402950A1, “SUBSTITUTED BENZIMIDAZOLES AS PAD4 INHIBITORS” (BRISTOL-MYERS SQUIBB COMPANY, priority 2018, published 2022)
